{
  "source": "patent US12036237B2",
  "about": "“Bromide source for use in treating autism spectral disorder” (INSERM (INSTITUT NATIONAL DE LA SANTE ET DE LA RECHERCHE …, priority 2016, dated 2024)",
  "key": {"Fmr1−/− mice [1]": {"tested_on": "Fmr1−/− mice", "experiment": "Direct social interaction test", "format": "in vivo", "procedure": "(§1) Sodium bromide (anhydrous, Sigma-Aldrich, Saint-Quentin, France) dissolved in saline solution (NaCl, 0.9%) at the dose of 250 or 500 mg/kg, or vehicle (NaCl, 0.9%), was administered intraperitoneally once a day for 19 days in a volume of 20 ml/kg. On testing days, bromide was administered 30 min before behavioural assays. Bumetanide (Tocris, provided by Bio-Techne, Lille, France) dissolved in NaCl 0.9% at the dose of 0.5 mg/kg (Deidda et al, 2015) or vehicle was administered intraperitoneally once a day for 19 days in a volume of 20 ml/kg.\n(§2) Behavioural assays started after a week of daily bromide (or bumetanide) treatment.\n(§3) Direct social interaction."}, "Shank3B−/− mice [2]": {"tested_on": "Shank3B−/− mice", "experiment": "Direct social interaction test", "format": "in vivo", "procedure": "as §1, §2, §3"}, "Fmr1−/− mice [3]": {"tested_on": "Fmr1−/− mice", "experiment": "Motor stereotypies scoring", "format": "in vivo", "conditions": "bromide 250 mg/kg i.p. daily", "procedure": "as §1, §2"}, "Shank3B−/− mice [4]": {"tested_on": "Shank3B−/− mice", "experiment": "Motor stereotypies scoring", "format": "in vivo", "conditions": "bromide 250 mg/kg i.p. daily", "procedure": "as §1, §2"}, "Fmr1−/− mice [5]": {"tested_on": "Fmr1−/− mice", "experiment": "Marble burying test", "format": "in vivo", "conditions": "Fmr1−/− and Fmr1+/+ mice; bromide 250 mg/kg i.p. daily", "procedure": "as §1, §2"}, "Fmr1−/− mice [6]": {"tested_on": "Fmr1−/− mice", "experiment": "Novelty-suppressed feeding test", "format": "in vivo", "conditions": "bromide 250 mg/kg i.p. daily", "procedure": "as §1, §2\n(§4) Novelty-suppressed feeding. […] Immediately after an eating event, the mouse was transferred back to the home cage (free from cage-mates) and allowed to feed on lab chow for 5 min."}, "Shank3B−/− mice [7]": {"tested_on": "Shank3B−/− mice", "experiment": "Novelty-suppressed feeding test", "format": "in vivo", "conditions": "bromide 250 mg/kg i.p. daily", "procedure": "as §1, §2, §4"}, "Oprm1−/− mice [8]": {"tested_on": "Oprm1−/− mice", "experiment": "Locomotor activity by videotracking", "format": "in vivo", "conditions": "Example 2; for locomotor activity after bromide administration: 250 and 500 mg/kg", "procedure": "as §1\nLocomotor activity. Locomotor activity was assessed in clear cages (21×11×17 cm) placed over a white Plexiglas infrared-lit platform. Light intensity of the room was set at 15 lx. The trajectories of the mice were analyzed and recorded via an automated tracking system equipped with an infrared-sensitive camera (Videotrack; View Point, Lyon, France). To focus on forward activity, only movements which speed was over 6 cm/s were taken into account for the measure of locomotor activity. Behavioral testing started when the animals were placed in the activity boxes for a 30 min-habituation period. They were then injected with either vehicle or sodium bromide (250 or 500 mg/kg) and locomotor activity was monitored for further 90 min."}, "Oprm1−/− mice [9]": {"tested_on": "Oprm1−/− mice", "experiment": "Y-maze exploration"}, "Oprm1−/− mice [10]": {"tested_on": "Oprm1−/− mice", "experiment": "Marble burying test", "conditions": "bromide 125, 250, 500 mg/kg i.p. daily"}, "Oprm1−/− mice [11]": {"tested_on": "Oprm1−/− mice", "experiment": "Motor stereotypies scoring", "conditions": "Example 2, bromide 250, 500 mg/kg; for number of grooming episodes / number of head shakes: Oprm1 wild-type and mutants"}, "[12]": {"conditions": "social interaction and three-chamber tests, bromide 250 mg/kg"}, "[13]": {"conditions": "Example 2, Oprm1−/− mice, bromide 250, 500 mg/kg"}},
  "note": "“Also recorded” adds a separate entry of the source.",
  "data": [
    {"smiles": "[Br-].[Na+]", "note": "[bromide, Sodium bromide]", "values": [
      {"measurement": "number of following episodes", "setting": "Fmr1−/− mice [1]; bromide 250 mg/kg i.p. daily", "result": "normalized"},
      {"measurement": "number of grooming episodes", "setting": "Fmr1−/− mice [1]; bromide 250 mg/kg i.p. daily", "result": "reduced"},
      {"measurement": "number of grooming episodes occurring after a social contact", "setting": "Fmr1−/− mice [1]; bromide 250 mg/kg i.p. daily", "result": "reduced"},
      {"measurement": "number of, time spent in and duration of paw contacts", "setting": "Fmr1−/− mice [1]; bromide 250 mg/kg i.p. daily", "result": "normalized"},
      {"measurement": "time spent in nose contact and duration of nose contacts", "setting": "Fmr1−/− mice [1]; bromide 250 mg/kg i.p. daily", "result": "normalized"},
      {"measurement": "time spent in social contact", "setting": "Fmr1−/− mice [1]; bromide 250 mg/kg i.p. daily", "result": "normalized"},
      {"measurement": "sociability parameters (overall)", "setting": "Fmr1−/− mice [1]; [12]", "result": "efficiently restores"},
      {"measurement": "number of following episodes", "setting": "Shank3B−/− mice [2]; bromide 250 mg/kg i.p. daily", "result": "restored to wild-type levels; also recorded: reduced"},
      {"measurement": "number of grooming episodes", "setting": "Shank3B−/− mice [2]; bromide 250 mg/kg i.p. daily", "result": "reduced"},
      {"measurement": "number of grooming episodes occurring after a social contact", "setting": "Shank3B−/− mice [2]; bromide 250 mg/kg i.p. daily", "result": "reduced"},
      {"measurement": "number of, time spent in and duration of paw contacts", "setting": "Shank3B−/− mice [2]; bromide 250 mg/kg i.p. daily", "result": "restored to wild-type levels; also recorded: reduced"},
      {"measurement": "time spent in nose contact, number and duration of nose contacts", "setting": "Shank3B−/− mice [2]; bromide 250 mg/kg i.p. daily", "result": "restored to wild-type levels; also recorded: reduced"},
      {"measurement": "sociability parameters (overall)", "setting": "Shank3B−/− mice [2]; [12]", "result": "efficiently restores"},
      {"measurement": "number of rearing, grooming or burying episodes", "setting": "Fmr1−/− mice [3]; Fmr1 knockout and wild-type", "result": "no effect"},
      {"measurement": "motor stereotypies (overall)", "setting": "Fmr1−/− mice [3]; Fmr1−/− mice", "result": "efficiently reduced; also recorded: relieves"},
      {"measurement": "number of circling episodes", "setting": "Fmr1−/− mice [3]; Fmr1−/− mice", "result": "normalized; also recorded: reduced"},
      {"measurement": "number of shakes", "setting": "Fmr1−/− mice [3]; Fmr1−/− mice", "result": "normalized; also recorded: reduced"},
      {"measurement": "duration of burying events", "setting": "Fmr1−/− mice [3]; all animals (Fmr1 line)", "result": "reduced"},
      {"measurement": "time spent burying", "setting": "Fmr1−/− mice [3]; all animals (Fmr1 line)", "result": "reduced"},
      {"measurement": "number of rearing episodes", "setting": "Shank3B−/− mice [4]; Shank3B−/− and wild-type", "result": "no effect"},
      {"measurement": "motor stereotypies (overall)", "setting": "Shank3B−/− mice [4]; Shank3B−/− mice", "result": "efficiently reduced; also recorded: relieves"},
      {"measurement": "number of circling episodes", "setting": "Shank3B−/− mice [4]; Shank3B−/− mice", "result": "normalized; also recorded: reduced"},
      {"measurement": "number of grooming episodes", "setting": "Shank3B−/− mice [4]; Shank3B−/− mice", "result": "normalized"},
      {"measurement": "number of shakes", "setting": "Shank3B−/− mice [4]; Shank3B−/− mice", "result": "normalized; also recorded: reduced"},
      {"measurement": "number of marbles buried", "setting": "Fmr1−/− mice [5]", "result": "reduced"},
      {"measurement": "food intake back in the home cage", "setting": "Fmr1−/− mice [6]; Fmr1 line", "result": "did not modify"},
      {"measurement": "exacerbated anxiety (overall)", "setting": "Fmr1−/− mice [6]; Fmr1−/− mice", "result": "can reduce"},
      {"measurement": "feeding latency", "setting": "Fmr1−/− mice [6]; Fmr1−/− mice", "result": "reduced the feeding latency to wild-type level; also recorded: decreased"},
      {"measurement": "food intake back in the home cage", "setting": "Shank3B−/− mice [7]; Shank3B mutants", "result": "did not rescued"},
      {"measurement": "exacerbated anxiety (overall)", "setting": "Shank3B−/− mice [7]; Shank3B−/− mice", "result": "can reduce"},
      {"measurement": "feeding latency", "setting": "Shank3B−/− mice [7]; Shank3B−/− mice", "result": "normalized"},
      {"measurement": "locomotor activity during the habituation run", "setting": "Oprm1−/− mice [8]; chronically treated animals, males since 250 mg/kg, females only at 500 mg/kg", "result": "higher"},
      {"measurement": "locomotor activity after bromide administration", "setting": "Oprm1−/− mice [8]; controls (wild-type)", "result": "not modified in controls at 250 mg/kg and was increased at 500 mg/kg; also recorded: at the dose of 500 mg/kg only"},
      {"measurement": "locomotor activity (overall)", "setting": "Oprm1−/− mice [8]; mice, bromide 250 mg/kg, males more sensitive", "result": "increases"},
      {"measurement": "locomotor activity after bromide administration", "setting": "Oprm1−/− mice [8]; mutant (KO) animals", "result": "increased in mutant animals at the dose of 250 mg/kg, but not at 500 mg/kg; also recorded: increased activity"},
      {"measurement": "ratio of same arm returns (cognitive stereotypies, perseveration)", "setting": "Oprm1−/− mice [9]; [13]", "result": "normalized; also recorded: relieved; also recorded: abolished"},
      {"measurement": "spontaneous alternation", "setting": "Oprm1−/− mice [9]; [13]", "result": "restored"},
      {"measurement": "number of arm entries (index of general locomotor activity)", "setting": "Oprm1−/− mice [9]; Example 2, both genotypes and genders, bromide 250 mg/kg", "result": "increased"},
      {"measurement": "number of alternate arm returns", "setting": "Oprm1−/− mice [9]; Example 2, more in mutants than wild-type, more in females than males", "result": "increased; also recorded: tendency to increase"},
      {"measurement": "rate of alternate arm returns", "setting": "Oprm1−/− mice [9]; Oprm1−/− and wild-type, bromide 125, 250, 500 mg/kg i.p. daily", "result": "increasing the rate"},
      {"measurement": "perseverative same arm returns (cognitive stereotypies)", "setting": "Oprm1−/− mice [9]; Oprm1−/− mice, bromide 125, 250, 500 mg/kg i.p. daily", "result": "efficiently reduced; also recorded: demonstrated efficacy in reducing; also recorded: dose-dependently decreased; also recorded: significant decrease"},
      {"measurement": "number of marbles buried", "setting": "Oprm1−/− mice [10]", "result": "reduced; also recorded: diminished"},
      {"measurement": "number of grooming episodes", "setting": "Oprm1−/− mice [11]", "result": "increased grooming episodes in wild-type (WT) animals without effects in mu opioid receptor knockouts"},
      {"measurement": "number of head shakes", "setting": "Oprm1−/− mice [11]", "result": "increased the number of head shakes in control mice to the level of mutants"},
      {"measurement": "number of grooming episodes", "setting": "Oprm1−/− mice [11]; listed as Bromide", "result": "increased the number of grooming episodes and male and female wild-type mice, but not in mutants"},
      {"measurement": "number of head shakes", "setting": "Oprm1−/− mice [11]; listed as Bromide", "result": "increased the number of head shakes in male and female wild-type mice, not in mutants"},
      {"measurement": "motor stereotypies (overall)", "setting": "Oprm1−/− mice [11]; Oprm1−/− mice", "result": "little effect"},
      {"measurement": "time spent burying", "setting": "Oprm1−/− mice [11]; all treated animals", "result": "decreased"}
    ]}
  ]
}
